The assay concerns MSH3. Put plainly: QPCR assay for levels of MSH3 upon compound treatment in HEK293T or AD293 cells (fold-change of MSH3 transcript, EC50 of MSH3 downregulation; total MSH3 exons 13/14, exons 20/21; Table 8). In kind it is cell-based. The conditions noted are these: for mrna remaining at 1 µM / mrna remaining at 10 µM: Homo sapiens, fold-change of the MSH3 transcript, normalized to GAPDH; for mrna remaining at 1 µM: 1 μM compound; for mrna remaining at 10 µM: 10 μM compound. An outline of the steps: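 HEK293T or AD293 cells were treated at 1 μM and […]; RNA-to-cDNA qPCR used TaqMan assays for total MSH3 (exons 13/14, exons 20/21) and poison-exon junctions exon 13/PE14A and exon 20/PE21A. Transcript levels were normalized to GAPDH.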

As a reminder, the EC50 is the concentration that produces a half-maximal response. Read a low EC50 as greater potency.

Take `CN(c1ccc(N2Cc3ncc(-c4cn(C)nc4Cl)cc3C2=O)nn1)[C@H]1C[C@]2(C)CC[C@](C)(C1)N2` [Compound 609, 3-(3-chloro-1-methyl-1H-pyrazol-4-yl)-6-(6-(((1R,3s,5S)-1,5-dimethyl-8-azabicyclo[3.2.1]octan-3-yl)(methyl)amino)pyridazin-3-yl)-6,7-dihydro-5H-pyrrolo[3,4-b]pyridin-5-one]: the mrna remaining at 1 µM is 39% and the mrna remaining at 10 µM amounted to 7%.

On to `CC(C)(O)Cn1cc(-c2cc3c(cn2)CN(c2ccc(OC4CC(C)(C)NC(C)(C)C4)nn2)C3=O)cn1` [Compound 21, 6-(1-(2-hydroxy-2-methylpropyl)-1H-pyrazol-4-yl)-2-(6-((2,2,6,6-tetramethylpiperidin-4-yl)oxy)pyridazin-3-yl)-2,3-dihydro-1H-pyrrolo[3,4-c]pyridin-1-one], for which the mrna remaining at 1 µM is 54% and the mrna remaining at 10 µM was 58%.

For the compound `Cn1nc(Cl)c(-c2cc(C#N)c3c(c2)C(=O)N(c2ccc(OC4CC(C)(C)NC(C)(C)C4)nn2)C3)n1` [Compound 680, 6-(5-chloro-2-methyl-2H-1,2,3-triazol-4-yl)-1-oxo-2-(6-((2,2,6,6-tetramethylpiperidin-4-yl)oxy)pyridazin-3-yl)isoindoline-4-carbonitrile], the mrna remaining at 1 µM was 94% and the mrna remaining at 10 µM stood at 31%.

In the case of `Cc1nc(C)c(-c2cnc3c(c2)C(=O)N(c2ccc(N(C)C4CC(C)(C)NC(C)(C)C4)nn2)C3)s1` [Compound 167, 3-(2,4-dimethylthiazol-5-yl)-6-(6-(methyl(2,2,6,6-tetramethylpiperidin-4-yl)amino)pyridazin-3-yl)-6,7-dihydro-5H-pyrrolo[3,4-b]pyridin-5-one], the mrna remaining at 1 µM was 47% and the mrna remaining at 10 µM was found to be 11%.

Consider `Cc1nn(C)nc1-c1cnc2c(c1)C(=O)N(c1ccc(N(C)C3CC(C)(C)NC(C)(C)C3)nn1)C2` [Compound 180, 3-(2,5-dimethyl-2H-1,2,3-triazol-4-yl)-6-(6-(methyl(2,2,6,6-tetramethylpiperidin-4-yl)amino)pyridazin-3-yl)-6,7-dihydro-5H-pyrrolo[3,4-b]pyridin-5-one], for which the mrna remaining at 1 µM was 50% and the mrna remaining at 10 µM was 8%. It took 1120 nM to reach a half-maximal effect (EC50 of MSH3 downregulation, XtalPi) (EC50).

For `CC(C)[C@H]1CN(c2ccc(N3Cc4c(F)cc(-c5cnn(C)n5)cc4C3=O)nn2)CCN1` [Compound 629, (S)-4-fluoro-2-(6-(3-isopropylpiperazin-1-yl)pyridazin-3-yl)-6-(2-methyl-2H-1,2,3-triazol-4-yl)isoindolin-1-one], the mrna remaining at 1 µM amounted to 74% and the mrna remaining at 10 µM was determined as 62%.

For the compound `Cc1nn(C)nc1-c1cc(F)c2c(c1)C(=O)N(c1ccc(N3CC[C@@H](NC(C)(C)C)C3)nn1)C2` [Compound 648, (R)-2-(6-(3-(tert-butylamino)pyrrolidin-1-yl)pyridazin-3-yl)-6-(2,5-dimethyl-2H-1,2,3-triazol-4-yl)-4-fluoroisoindolin-1-one], the mrna remaining at 1 µM came out at 113% and the mrna remaining at 10 µM amounted to 87%.

Take `Cn1nc(Cl)c(-c2cc(F)c3c(c2)C(=O)N(c2ccc(N4CCC(NC5CC5)C4)nn2)C3)n1` (stereo not shown) [Compound 652, 6-(5-chloro-2-methyl-2H-1,2,3-triazol-4-yl)-2-(6-(3-(cyclopropylamino)pyrrolidin-1-yl)pyridazin-3-yl)-4-fluoroisoindolin-1-one]: the mrna remaining at 1 µM turned out to be 103% and the mrna remaining at 10 µM was found to be 79%.

Take `Cc1nn(C)nc1-c1cc(F)c2c(c1)C(=O)N(c1ccc(N3CC4CC(C3)N4)nn1)C2` [Compound 662, 2-(6-(3,6-diazabicyclo[3.1.1]heptan-3-yl)pyridazin-3-yl)-6-(2,5-dimethyl-2H-1,2,3-triazol-4-yl)-4-fluoroisoindolin-1-one]: the mrna remaining at 1 µM was 191% and the mrna remaining at 10 µM came to 87%.

Values taken from patent US20260315464A1, “COMPOSITIONS, METHODS, AND SYSTEMS FOR MODULATING SPLICING OF MSH3” (REVIR THERAPEUTICS, INC., priority 2023, published 2026).
